Measured values as given in US20250228856A1, “USE OF HEMATOPOIETIC CELL KINASE (HCK) INHIBITOR IN PREPARATION OF DRUG FOR TREATING PULMONARY FIBROSIS” (Institute of Basic Medical Sciences, CAMS, priority 2024, published 2025).

What was measured:
Type in all cases: in vivo, C57BL/6J mice
IPF mice [1] = assay: Transcription levels of inflammatory factors in lung tissue of IPF mice (qPCR); conditions: BLM IPF mice, 30 mg/kg i.p., 3 weeks
Experimental: (§1) Male C57BL/6J mice (aged 8 weeks and weighing 25-30 g) were selected and housed in an SPF grade laboratory animal room, and the model of IPF was constructed by one-time intratracheal instillation of bleomycin (BLM); the mice were divided into four groups (n=9): • 1) PBS group+vehicle group: PBS (the volume consistent with the subsequent BLM infusion volume) was given by tracheal instillation; RK-20449 solvent PBS was injected intraperitoneally; • 2) PBS+RK-20449 group: intratracheal instillation of PBS (volume consistent with subsequent BLM infusion volume); intraperitoneal injection of RK-20449 (30 mg/kg, once a day, 6 d a week, for 3 weeks); • 3) BLM+vehicle group: BLM solution (2 U/kg) was given tracheal infusion; RK-20449 solvent PBS was injected intraperitoneally; and • 4) BLM+RK-20449 group: BLM solution (2 U/kg) was given tracheal infusion, and RK-20449 (30 mg/kg, once a day, 6 d a week, for 3 weeks) was injected intraperitoneally.
(§2) All mice were sacrificed after 21 d of administration, and the corresponding samples were collected for detection.
(§3) Lung tissue RNA of all mice was extracted; cDNA was obtained by using a reverse transcription kit (KR103, Tiangen Biotechnology, Beijing, China); qPCR was conducted by using a SYBR Green I Q-PCR Kit (TransGen Biotech, Beijing China); data collection and analysis were conducted by Bio-Rad IQ5 system.

IPF mice [2] = assay: ELISA of inflammatory factors in BALF of IPF mice; conditions: BLM IPF mice, 30 mg/kg i.p., 3 weeks
Experimental: as §1, §2
Concentrations of inflammatory factors IL-1β and IL-6 in mouse BALF were detected by using ELISA kits.

Hck = Hck transcription level in lung tissue of IPF mice (qPCR); conditions: BLM (2 U/kg) IPF mice; RK-20449 30 mg/kg i.p. once a day, 6 d a week, 3 weeks; FIG. 1
Experimental: as §1, §2, §3

IPF mice [3] = assay: Transcription levels of fibrosis factors in lung tissue of IPF mice (qPCR); conditions: BLM IPF mice, 30 mg/kg i.p., 3 weeks
Experimental: as §1, §2, §3

IPF mice [4] = assay: Body weight and survival rate of IPF mice; conditions: BLM IPF mice, 30 mg/kg i.p., 3 weeks
Experimental: as §1, §2
The mice in each group were weighed, and the death of the mice was observed and counted.

IPF mice [5] = assay: HYP content and degree of lesions in lung tissue of IPF mice; conditions: BLM IPF mice, 30 mg/kg i.p., 3 weeks
Experimental: as §1, §2
30 mg of mouse lung tissue was detected using an HYP kit (NBP2-59747, Novus Biologicals, Littleton, CO, USA).

IPF mice [6] = assay: Pulmonary function test in IPF mice; conditions: BLM IPF mice, 30 mg/kg i.p., 3 weeks
Experimental: as §1, §2
Anesthetized mice were fixed on an experimental table, and mouse lung function was detected by a pulmonary function testing system (DSI Buxco, USA). Before experiment, the mouse was anesthetized by intraperitoneal injection of 0.4 mL/100 g 2% pentobarbital, tracheotomy was performed, a trachea cannula was inserted, and a ventilator was connected. Next, FRC, PV, FV, and RC were automatically tested by a PET system. Indicators closely related to lung function changes in pulmonary fibrosis for statistical analysis, including lung volume indicators such as IC, and pulmonary ventilation function tests such as RI, Cdyn, and Cchord.

CN1CCN(C2CCC(n3cc(-c4ccc(Oc5ccccc5)cc4)c4c(N)ncnc43)CC2)CC1 (stereo not shown) [RK-20449]
transcription level of Il-1β (IPF mice [1]; FIG. 3A): decreased | transcription level of Il-6 (IPF mice [1]; FIG. 3B): decreased | transcription level of Tnf-α (IPF mice [1]; FIG. 3C): decreased | concentration of IL-1β in the alveolar lavage fluid (IPF mice [2]; FIG. 3D): decreased | concentration of IL-6 in the alveolar lavage fluid (IPF mice [2]; FIG. 3E): decreased | transcription level of Hck in the lung tissue (Hck): effectively inhibit | transcription level of Col-I (IPF mice [3]; FIG. 4A): decreased | transcription level of Fn-1 (IPF mice [3]; FIG. 4B): decreased | weight loss of IPF mice (IPF mice [4]; FIG. 2A): alleviated | survival rate (IPF mice [4]; FIG. 2B): increased to a certain extent | degree of lesions (IPF mice [5]): alleviated | hydroxyproline content in lung tissue (IPF mice [5]; lung tissue, FIG. 4C): decreased | lung function: inspiratory resistance (RI) (IPF mice [6]; FIG. 2C): improved significantly | lung function: dynamic compliance (Cdyn) (IPF mice [6]; FIG. 2D): improved significantly | lung function: quasi-static compliance (Cchord) (IPF mice [6]; FIG. 2E): improved significantly | lung function: inspiratory capacity (IC) (IPF mice [6]; FIG. 2F): improved significantly
